Measurements reported in patent US20250346602A1, “LACTAM SUBSTITUTED IMIDAZOPYRIDAZINE IL-17A MODULATORS AND USES THEREOF” (DICE ALPHA, INC., priority 2022, published 2025).

molecular target: T1, IL-17A/A (Homo sapiens, UniProt Q16552); experiment: IL-17A/A HEK-Blue cell assay; assay type: cell-based; details: HEK-Blue IL-17A reporter cell line (HEK 293), IL-17A/A stimulation, 20 hours incubation, SEAP read at A630
T1 construct: purchased Genscript Z03228
T1 sequence (Q16552 24-155): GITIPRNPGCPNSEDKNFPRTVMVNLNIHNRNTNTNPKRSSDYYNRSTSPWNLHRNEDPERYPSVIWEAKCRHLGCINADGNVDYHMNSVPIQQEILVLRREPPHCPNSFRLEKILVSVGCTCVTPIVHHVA
Protocol: The HEK-Blue IL-17A reporter cell line (Fisher #NC1408637) was used for cell-based IL-17A/A inhibition assays. Cells were grown and prepared for assays according to the manufacturer's instructions. This cell line consists of HEK 293 cells that were designed to expressed IL-17RA, IL-17RC, and the ActI adapter molecule, the combination of which, when stimulated by IL-17A/A activates a NFκB promoter and drives expression of a recombinant Secreted Alkaline Phosphatase (SEAP) gene protein. Media from the cells is then added to a development reagent (Quanti-Blue Substrate, Fisher #NC9711613), and read at A630.
Compounds were titrated in DMSO, with a top final compound concentration of 10 uM, 1 uM, or 0.3 uM, and added to the cells immediately before adding IL-17A/A (Genscript #Z03228). The cells, compound, and IL-17A/A were then incubated for 20 hours before media was removed for SEAP analysis. The resulting inhibition curve was then analyzed using Graphpad Prism 7.0, and IC50 values were determined using a 4-parameter nonlinear fit. DMSO was added to a universal final concentration of 0.1% to optimize background.

Compound | IC50 [nM]
CCn1nccc1C(=O)N[C@H](c1cn2nc(CC3CC(F)(F)CNC3=O)c(C)cc2n1)C1CCC(F)(F)CC1 (single isomer, unassigned) [Compound 77] | > 1000
CCn1nccc1C(=O)N[C@H](c1cn2nc(CC3C[C@@H](C(F)(F)F)CNC3=O)c(C(F)(F)F)cc2n1)[C@H]1CC[C@H](C)CC1 (single isomer, unassigned) [Compound 78] | 100 to 1000
CCn1nccc1C(=O)N[C@H](c1cn2nc(CC3C[C@@H](C(F)(F)F)CNC3=O)c(C(F)(F)F)cc2n1)[C@H]1CC[C@H](C)CC1 (single isomer, unassigned) [Compound 79] | > 1000
CCn1nccc1C(=O)N[C@H](c1cn2nc(CC3C[C@@H](C(F)(F)F)CNC3=O)c(Cl)cc2n1)C1CCC(F)(F)CC1 (single isomer, unassigned) [Compound 80] | 100 to 1000
CCn1nccc1C(=O)N[C@H](c1cn2nc(CC3C[C@@H](C(F)(F)F)CNC3=O)c(C)cc2n1)C1CCC(F)(F)CC1 (single isomer, unassigned) [Compound 83] | 100 to 1000
CCn1nccc1C(=O)N[C@H](c1cn2nc(CC3CC(F)(F)CNC3=O)c(N(C)C)cc2n1)C1CCC(F)(F)CC1 (single isomer, unassigned) [Compound 87] | < 100
CCN(C)c1cc2nc([C@@H](NC(=O)c3ccnn3CC)C3CCC(F)(F)CC3)cn2nc1CC1C[C@@H](C(F)(F)F)CNC1=O (single isomer, unassigned) [Compound 88] | < 100
CCN(C)c1cc2nc([C@@H](NC(=O)c3ccnn3CC)C3CCC(F)(F)CC3)cn2nc1CC1C[C@@H](C(F)(F)F)CNC1=O (single isomer, unassigned) [Compound 89] | < 100
CCn1nccc1C(=O)N[C@H](c1cn2nc(CC3C[C@@H](C(F)(F)F)CNC3=O)c(N(C)C3CC3)cc2n1)C1CCC(F)(F)CC1 (single isomer, unassigned) [Compound 91] | < 100
CCn1nccc1C(=O)N[C@H](c1cn2nc(CC3C[C@@H](C(F)(F)F)CNC3=O)c(N(C)C3CCOCC3)cc2n1)C1CCC(F)(F)CC1 (single isomer, unassigned) [Compound 94] | < 100
O=C(N[C@H](c1cn2nc(CC3C[C@@H](C(F)(F)F)CNC3=O)ccc2n1)C1CCC(F)(F)CC1)c1ccnn1C1CC1(F)F (single isomer, unassigned) [Compound 98] | < 100
O=C(N[C@H](c1cn2nc(CC3C[C@@H](C(F)(F)F)CNC3=O)ccc2n1)C1CCC(F)(F)CC1)c1conc1C1CC1(F)F (single isomer, unassigned) [Compound 126] | < 100
O=C(N[C@H](c1cn2nc(CC3C[C@@H](C(F)(F)F)CNC3=O)ccc2n1)C1CCC(F)(F)CC1)c1conc1C1CC1(F)F (single isomer, unassigned) [Compound 127] | < 100
O=C1NC[C@H](C(F)(F)F)CC1Cc1ccc2nc([C@@H](NC(=O)C3CC34CC(F)(F)C4)C3CCC(F)(F)CC3)cn2n1 (single isomer, unassigned) [Compound 130] | > 1000
O=C1NC[C@H](C(F)(F)F)CC1Cc1ccc2nc([C@@H](NC(=O)C3CC34CC(F)(F)C4)C3CCC(F)(F)CC3)cn2n1 (single isomer, unassigned) [Compound 131] | 100 to 1000
CCn1nccc1C(=O)N[C@H](c1cn2nc(CC3C[C@@H](C(F)(F)F)CNC3=O)ccc2n1)C1CC2(C1)CC(F)(F)C2 (single isomer, unassigned) [Compound 173] | 100 to 1000
CCn1nccc1C(=O)NC(c1cn2nc(CC3C[C@@H](C(F)(F)F)CNC3=O)ccc2n1)C1CCC2CC2CC1 (single isomer, unassigned) [Compound 174] | > 1000
CCn1nccc1C(=O)NC(c1cn2nc(CC3C[C@@H](C(F)(F)F)CNC3=O)ccc2n1)C1CCC2CC2CC1 (single isomer, unassigned) [Compound 175] | 100 to 1000
CCn1nccc1C(=O)NC(c1cn2nc(CC3C[C@@H](C(F)(F)F)CNC3=O)ccc2n1)C1CCC2CC2CC1 (single isomer, unassigned) [Compound 176] | < 100
CCn1nccc1C(=O)N[C@H](c1cn2nc(CC3C[C@@H](C(F)(F)F)CNC3=O)c(N(C)CC(F)(F)F)cc2n1)C1CCC(F)(F)CC1 (single isomer, unassigned) [Compound 182] | 100 to 1000
CCn1nccc1C(=O)N[C@H](c1cn2nc(CC3C[C@@H](C(F)(F)F)CNC3=O)ccc2n1)C1CC2(CCC2)C1 (single isomer, unassigned) [Compound 190] | > 1000
CCn1nccc1C(=O)N[C@H](c1cn2nc(CC3CC(C(F)(F)F)CNC3=O)ccc2n1)C1CCCCCC1 (single isomer, unassigned) [Compound 195] | > 1000
CCn1nccc1C(=O)N[C@H](c1cn2ncc(CC3C[C@@H](C(F)(F)F)NC3=O)cc2n1)C1CCC(F)(F)CC1 (single isomer, unassigned) [Compound 204] | < 100
O=C(N[C@H](c1cn2ncc(CC3C[C@@H](C(F)(F)F)NC3=O)cc2n1)C1CCC(F)(F)CC1)c1nonc1C1CC1 (single isomer, unassigned) [Compound 205] | < 100
CCn1nccc1C(=O)N[C@H](c1cn2ncc(CC3C[C@@H](C(F)(F)F)CNC3=O)cc2n1)C(C1CC1)C1CC1 (single isomer, unassigned) [Compound 208] | 100 to 1000
CCn1nccc1C(=O)N[C@H](c1cn2ncc(CC3C[C@H](C(F)(F)F)CNC3=O)cc2n1)C(C1CC1)C1CC1 (single isomer, unassigned) [Compound 209] | > 1000
CCn1nccc1C(=O)NC(c1cn2ncc(CC3CC(F)(F)CNC3=O)cc2n1)C1CCC(C)CC1 (single isomer, unassigned) [Compound 210] | > 1000
CCn1nccc1C(=O)NC(c1cn2ncc(CC3CC(F)(F)CNC3=O)cc2n1)C1CCC(C)CC1 (single isomer, unassigned) [Compound 211] | 100 to 1000
CCn1nccc1C(=O)NC(c1cn2ncc(CC3CCC(C(F)(F)F)NC3=O)cc2n1)C1CCC(C)CC1 (single isomer, unassigned) [Compound 213] | > 1000

Results, then the compound that gave them:

IC50 [nM] | Compound
> 1000 | CCn1nccc1C(=O)N[C@H](c1cn2nc(CC3C[C@@H](C(F)(F)F)CNC3=O)c(C)cc2n1)C1CCC(F)(F)CC1 (single isomer, unassigned) [Compound 82]
100 to 1000 | CCn1nccc1C(=O)N[C@H](c1cn2nc(CC3C[C@@H](C(F)(F)F)CNC3=O)c(N(C)C)cc2n1)C1CCC(F)(F)CC1 (single isomer, unassigned) [Compound 85]
100 to 1000 | CCn1nccc1C(=O)N[C@H](c1cn2nc(CC3C[C@@H](C(F)(F)F)CNC3=O)c(N(C)C3CC3)cc2n1)C1CCC(F)(F)CC1 (single isomer, unassigned) [Compound 90]
< 100 | CCn1nccc1C(=O)N[C@H](c1cn2nc(CC3C[C@H](C(F)(F)F)CNC3=O)c(C)cc2n1)C1CCC(F)(F)CC1 (single isomer, unassigned) [Compound 92]
100 to 1000 | CCn1nccc1C(=O)N[C@H](c1cn2nc(CC3C[C@@H](C(F)(F)F)CNC3=O)c(N(C)C3CCOCC3)cc2n1)C1CCC(F)(F)CC1 (single isomer, unassigned) [Compound 93]
100 to 1000 | O=C(N[C@H](c1cn2nc(CC3C[C@@H](C(F)(F)F)CNC3=O)ccc2n1)C1CCC(F)(F)CC1)c1ccnn1C1CC1(F)F (single isomer, unassigned) [Compound 99]
< 100 | CCn1nccc1C(=O)N[C@H](c1cn2nc(CC3C[C@@H](C(F)(F)F)CNC3=O)c(N(C)CC(F)(F)F)cc2n1)C1CCC(F)(F)CC1 (single isomer, unassigned) [Compound 181]
100 to 1000 | CCn1nccc1C(=O)N[C@H](c1cn2nc(CC3C[C@@H](C(F)(F)F)CNC3=O)ccc2n1)C1CCC2(CC1)CC2 (single isomer, unassigned) [Compound 188]
100 to 1000 | CCn1nccc1C(=O)N[C@H](c1cn2nc(CC3C[C@@H](C(F)(F)F)CNC3=O)ccc2n1)C1CC2(CCC2)C1 (single isomer, unassigned) [Compound 189]
> 1000 | CCn1nccc1C(=O)N[C@H](c1cn2ncc(CC3C[C@@H](C(F)(F)F)NC3=O)cc2n1)C(C1CC1)C1CC1 (single isomer, unassigned) [Compound 201]
100 to 1000 | CCn1nccc1C(=O)N[C@H](c1cn2ncc(CC3C[C@@H](C(F)(F)F)NC3=O)cc2n1)C(C1CC1)C1CC1 (single isomer, unassigned) [Compound 202]
< 100 | CCn1nccc1C(=O)N[C@H](c1cn2ncc(CC3C[C@@H](C(F)(F)F)NC3=O)cc2n1)[C@H]1CC[C@H](C)CC1 (single isomer, unassigned) [Compound 212]
100 to 1000 | CCn1nccc1C(=O)NC(c1cn2ncc(CC3CCC(C(F)(F)F)NC3=O)cc2n1)C1CCC(C)CC1 (single isomer, unassigned) [Compound 214]
< 100 | O=C(N[C@H](c1cn2ncc(CC3C[C@@H](C(F)(F)F)NC3=O)cc2n1)C1CCC(F)(F)CC1)c1conc1C(F)(F)F (single isomer, unassigned) [Compound 215]
100 to 1000 | CCn1nccc1C(=O)N[C@H](c1cn2ncc(CC3C[C@@H](C(F)(F)F)CNC3=O)cc2n1)[C@H]1CC[C@H](C)CC1 (single isomer, unassigned) [Compound 216]
